# Assay results taken from ChEMBL document CHEMBL6096669, “Design and synthesis of novel derivatives of bisepoxylignans as potent anti-inflammatory agents involves the modulation of the M1/M2 microglia phenotype via TLR4/NF-κB signaling pathway” (Eur J Med Chem, 2025).
# The source made the active and inactive calls. No cut-off for these calls is given here.
# Experiments:
# [1] = test system: BV-2; assay: Anti-neuroinflammatory activity against LPS-induced mouse BV-2 cells assessed as smaller cell bodies and morphology at 20 uM by bright field microscopy relative to LPS-induced control; assay type: functional, cell-based
# [2] = test system: BV-2; assay: Inhibition of LPS-induced NO production in mouse BV-2 cells measured after 24 hrs followed by induced with LPS for another 24 hrs by ELISA relative to control; assay type: functional, cell-based
# [3] = test system: BV-2; assay: Anti-inflammatory activity against LPS-induced mouse BV-2 cells assessed as decrease in LPS-induced iNOS mRNA expression at 5 uM incubated for 4 hrs followed by LPS induced for 12 hrs by RT-PCR analysis relative to control; assay type: functional, cell-based; conditions: time 16.0 hrs
# [4] = test system: BV-2; assay: Anti-inflammatory activity against LPS-induced mouse BV-2 cells assessed as decrease in LPS-induced Cyclooxygenase-2 mRNA expression at 5 to 20 uM incubated for 4 hrs followed by LPS induced for 12 hrs by RT-PCR analysis relative to control; assay type: functional, cell-based; conditions: dose 5-20 µM, time 16.0 hrs
# [5] = test system: BV-2; assay: Anti-inflammatory activity against LPS-induced mouse BV-2 cells assessed as decrease in LPS-induced TNF-alpha mRNA expression at 5 uM incubated for 4 hrs followed by LPS induced for 12 hrs by RT-PCR analysis relative to control; assay type: functional, cell-based; conditions: time 16.0 hrs
# [6] = test system: BV-2; assay: Anti-inflammatory activity against LPS-induced mouse BV-2 cells assessed as decrease in LPS-induced TNF-alpha mRNA expression at 10 to 20 uM incubated for 4 hrs followed by LPS induced for 12 hrs by RT-PCR analysis relative to control; assay type: functional, cell-based; conditions: dose 10-20 µM, time 16.0 hrs
# [7] = test system: BV-2; assay: Anti-inflammatory activity against LPS-induced mouse BV-2 cells assessed as decrease in LPS-induced IL-1beta mRNA expression at 5 uM incubated for 4 hrs followed by LPS induced for 12 hrs by RT-PCR analysis relative to control; assay type: functional, cell-based; conditions: time 16.0 hrs
# [8] = test system: BV-2; assay: Anti-inflammatory activity against LPS-induced mouse BV-2 cells assessed as decrease in LPS-induced IL-1beta mRNA expression at 10 to 20 uM incubated for 4 hrs followed by LPS induced for 12 hrs by RT-PCR analysis relative to control; assay type: functional, cell-based; conditions: dose 10-20 µM, time 16.0 hrs
# [9] = test system: BV-2; assay: Anti-inflammatory activity against LPS-induced mouse BV-2 cells assessed as decrease in LPS-induced IL-6 mRNA expression at 10 to 20 uM incubated for 4 hrs followed by LPS induced for 12 hrs by RT-PCR analysis relative to control; assay type: functional, cell-based; conditions: dose 10-20 µM, time 16.0 hrs
# [10] = Acute toxicity in C57BL/6 mouse assessed as change in BUN level at 500 mg/kg, po single dose measured on day 8; assay type: organism-based; conditions: in vivo
# [11] = Cmax in rat at 20 mg/kg, po single dose; assay type: ADME, organism-based; conditions: in vivo
# [12] = test system: Mus musculus; assay: (§1) Anti-neuroinflammatory activity against LPS-induced male C57BL/6 mouse assessed as suppression of LPS-induced pathological changes in spleen at 20 mg/kg, po administered for 3 days followed by induced with LPS by tail vein injection by hematoxylin-eosin staining based assay; assay type: functional, organism-based; conditions: time 3.0 day
# [13] = test system: Mus musculus; assay: as §1, with “microglial activation by measuring decrease” for “pathological changes”, “IBA1 fluorescence intensity” for “spleen”, “immunofluorescence” for “hematoxylin-eosin”; assay type: functional, organism-based; conditions: time 3.0 day
# [14] = test system: Mus musculus; assay: as §1, with “microglial activation by measuring decrease” for “pathological changes”, “[…] fluorescence intensity” for “spleen”, “immunofluorescence” for “hematoxylin-eosin”; assay type: functional, organism-based; conditions: time 3.0 day
# [15] = test system: Mus musculus; assay: Anti-neuroinflammatory activity against LPS-induced male C57BL/6 mouse assessed as suppression of LPS-induced p-NF-kappaB protein level at 10 mg/kg, po administered for 3 days followed by induced with LPS by tail vein injection by Western blot analysis; assay type: functional, organism-based; conditions: time 3.0 day
smiles,measurement,setting,value
O=c1[nH]c2ccc(Nc3ncnc4c3ccn4Cc3ccc(F)cc3)cc2[nH]1,Activity,[1],Active
same,inhibition,[2],Active
same,Activity,[3],Not active; No Significant Effect Observed Vs Lps
same,Activity,[4],Active
same,Activity,[5],Not active; No Significant Effect Observed Vs Lps
same,Activity,[6],Active
same,Activity,[7],Not active; No Significant Effect Observed Vs Lps
same,Activity,[8],Active
same,Activity,[9],Active
same,Activity,[10],Non-toxic
same,Cmax,[11],7490 ng/mL
same,Activity,[12],"Active; Decreased Lps-Induced Visceral Injury (Cell Morphology, Hemorrhage, And Neutrophil Infiltration) And Maintaining Normal Cell Shape And Arrangement And Enhancing Infiltration Of Inflammatory Cells"
same,Activity,[13],Active
same,Activity,[14],Active
same,Activity,[15],Not active; No Significant Effect Observed Vs Lps
